Source: US9260410B2, “P38 MAP kinase inhibitors” (Respivert Ltd., priority 2010, dated 2016)
Where two headings read alike, the source gives them in different places.

Legend:
[1] = system: LPS-induced TNFα release in d-U937 cells; test: LPS-induced TNFα release in d-U937 cells; assay type: cell-based; conditions: Homo sapiens, dU937, 4 h
Method: U937 cells, a human monocytic cell line, were differentiated to macrophage-type cells by incubation with phorbol myristate acetate (PMA; 100 ng/ml) for 48 to 72 hr. […] The supernatant was collected for determination of TNFα and IL-8 concentrations by sandwich ELISA (Duo-set, R&D systems). […] The relative 50% effective concentration (REC50) was determined from the resultant concentration-response curve. The inhibition of IL-8 production was calculated at each concentration of test compound by comparison with vehicle control.

[2] = system: LPS-induced TNFα release in THP-1 cells; test: LPS-induced TNFα release in THP-1 cells; assay type: cell-based; conditions: Homo sapiens
Method: THP-1 cells, a human monocytic cell line, were stimulated with 3 μg/mL of LPS (from E. Coli; 0111:B4, Sigma) for 4 hr and the supernatant collected for determination of the TNFα concentration by sandwich ELISA (Duo-set, R&D systems). The inhibition of TNFα production was calculated at each concentration by comparison with vehicle control. The 50% inhibitory concentration (IC50) was determined from the resultant concentration-response curve.

[3] = system: Differentiated U937 cells; test: MTT assay: cell viability; assay type: cell-based, human; conditions: 10 μg/ml
Method: The supernatant was replaced with 200 μL of new media and 10 μL of MTT stock solution (5 mg/mL) was added to each well. After incubation for 1 hr the media were removed, 200 μL of DMSO was added to each well and the plates were shaken lightly for 1 hr prior to reading the absorbance at 550 nm. The percentage loss of cell viability was calculated for each well relative to vehicle (0.5% DMSO) treatment. Consequently an apparent increase in cell viability for drug treatment relative to vehicle is tabulated as a negative percentage.

EC50 ([1]; read-out: LPS/TNFα d-U937 REC50) [nM] | IC50 ([2]; THP-1 cells, 3 μg/mL LPS, 4 hr, read-out: LPS/TNFα THP-1 IC50) [nM] | Compound | MTT Assay 4 h (cell viability) ([3]; d-U937, 4 hr in 5% FCS) | MTT Assay 24 h (cell viability) ([3]; d-U937, 24 h in 10% FCS) | EC50 ([1]; read-out: LPS/TNFα d-U937 REC50 (nM)) [nM] | IC50 ([2]; THP-1, 4 h, read-out: LPS/TNFα THP-1 IC50 (nM)) [nM]
4.8 | 4.1 | Cc1ccc(-n2nc(C(C)(C)C)cc2NC(=O)Nc2ccc(OCCN3CCOCC3)c3ccccc23)cc1 [BIRB796, 1-(3-tert-Butyl-1-p-tolyl-1H-pyrazol-5-yl)-3-(4-(2-morpholinoethoxy)naphthalen-1-yl)urea] | − (− = <30% inhibition at 10 μg/ml) | − (− = <30% inhibition at 10 μg/ml) | – | –
– | – | CC(=O)Nc1cc(Oc2ccc(NC(=O)Nc3cc(C(C)(C)C)nn3-c3ccc(C)cc3)c3ccccc23)ccn1 [Example 3, N-(4-((4-(3-(3-(tert-Butyl)-1-(p-tolyl)-1H-pyrazol-5-yl)ureido)naphthalen-1-yl)oxy)pyridin-2-yl)acetamide] | – | – | 1 | 1.6
